A value given as a limit tells only on which side of the number the result lay.

For one test, the system named is Androgen Receptor. The experiment in a line: Androgen receptor ELISA assay (AR degradation) in LNCaP and/or VCaP cells. In kind it is cell-based. Conditions: AR PROTACs; 24 h incubation. On the procedure:
Compounds have been evaluated in this assay in LNCaP and/or VCaP cells utilizing similar protocols. The protocols used with VCaP cells are described below. The androgen receptor ELISA assay was performed using PathScan AR ELISA (Cell Signaling Catalog #128501 according to the following assay steps:
VCaP cells are seeded at 30,000 cells/well at a volume of 200 μL/well in VCaP assay medium [Phenol red free RPMI (Gibco Cat #11835-030); 5% Charcoal Stripped (Dextran treated) FBS (Omega Scientific, Cat #FB-04); Pen/Strep Life Technologies (Gibco Cat #: 10378-016); 0. 1 nM R1881 (Sigma, Cat #R0908) is added upon the start of the assay, not during initial plating of the cells) in Corning 3904 plates. The cells are grown for a minimum of 3 days.
(2)(i) Make 10× stock plate in media; (ii) transfer 2.5 μL of the 1000× stock to a new 10× stock plate (use 12 channel pipet, start at A (DMSO control) work thru H. When 247.5 μL of media is added to this plate, it will serve as a 10× stock; (iii) make media+1 nM R1881 for making 10× stock plate; (iv) add 247.5 μL of media with 1 nM R1881 to each well of the 10× stock plate, mix.
Then 22 μL of 10× stock is added to cells and incubated for 24 h. 1× Cell Signaling Cell lysis buffer is made (Catalogue #9803; comes with the kit)—prepare for 50 μL/well. Keep on ice. Media is aspirated, and 50 μL 1× cell lysis buffer/well is added. The cells are placed on ice for 10 minutes. The solution is mixed and transferred to PCR plate, and centrifuged at 4 C for 10 minutes at 4000 rpm. […]
Add 100 μL/well AR Elisa; cover and shake, 37 C for 2 hrs; dump, tap, wash 4× 200 μL ELISA wash buffer; add 100 μL/well mouse AR detection Ab; cover and shake, 37 C for 1 hr; dump, tap, wash 4× 200 μL ELISA wash buffer; add 100 μL/well anti-mouse—HRP conjugated Ab (comes with the kit); cover and shake, 37 C for 30 min; allow TMB reagent to come to RT; dump, tap, wash 4× 200 μL Elisa wash buffer; tap; add 100 μL TMB, shake 5 min—while watching color. […] Add 100 μL Stop solution; shake and read at 450 nm. […]
A general note: ELISA stands for enzyme-linked immunosorbent assay.

A further test deals with BRD4 (Homo sapiens (Human), UniProt O60885). Briefly: BRD4 c-myc ELISA assay in 22RV-1 cells. In kind it is cell-based. Particulars: 18 hrs, 300 nM-0.3 nM. On the procedure: 22RV-1 cells were seeded at 30,000 cells/well at a volume of 75 μL/well in RPMI+10% FBS media in 96-well plates and grown overnight at 37 C. Cells were dosed with compounds at 4× concentration diluted in 0.4% DMSO; compounds were serially diluted 1:3 for 8-point dose curve. 25 ul of compound was added to cells for a final concentration starting at 300 nM-0.3 nM in 0.1% DMSO and incubated for 18 hrs. Media was aspirated, cells washed 1× with PBS and aspirated. Cells were lysed in 50 ul RIPA buffer (50 mM Tris pH8, 150 mM NaCl, 1% Tx-100, 0.1% SDS, 0.5% sodium deoxycholate) supplemented with protease and phosphatase inhibitors. Plates were incubated on ice for 15 minutes then centrifuged at 4° C. for 10 min at 4000 rpm. Added 50 ul of cleared lysate from 96-well assay plate into 96-well c-myc ELISA plate (Novex, Life Technologies Catalog #KH02041). […] The rest of the assay was performed following the protocol from the c-myc ELISA kit. Data was analyzed and plotted using GraphPad Prism software.

A further test deals with VHL (Homo sapiens (Human), UniProt P40337). The experiment in a line: VHL fluorescence polarization (FP) competition assay. In kind it is binding.

With `Cc1ncsc1-c1ccc(CNC(=O)[C@@H]2C[C@@H](O)CN2C(=O)C(C(C)C)n2cc(OC3CCN(c4ccc(-c5ccc(N6C(=S)N(c7ccc(C#N)c(C(F)(F)F)c7)C(=O)C6(C)C)cc5)cn4)CC3)cn2)cc1` (stereo partly shown), the “Dmax (highest percentage of Androgen Receptor degradation observed)” value in the test on Androgen Receptor was “++ (26%≤Dmax≤50%)”.

Take `Cc1ncsc1-c1ccc(CNC(=O)[C@@H]2C[C@@H](O)CN2C(=O)[C@H](C(C)C)n2cc(-c3cccc(O[C@H](C)CNC(=O)C[C@@H]4N=C(c5ccc(Cl)cc5)c5c(sc(C)c5C)-n5c(C)nnc54)c3)cn2)cc1`: the “cMyc Imax” value at BRD4 is recorded as “++++ (71%≤Imax)”.

Turning to `CSC[C@H](NC(=O)CCC(C)C)C(=O)N1C[C@H](O)C[C@H]1C(=O)NCc1ccc(-c2scnc2C)cc1` [Example 22, (2S,4R)-4-hydroxy-1-((R)-2-(4-methylpentanamido)-3-(methylthio)propanoyl)-N-(4-(4-methylthiazol-5-yl)benzyl)pyrrolidine-2-carboxamide], the half-inhibitory concentration (IC50) (as a rule, the concentration that inhibits the measured activity by half) at VHL (1% in DMSO) was determined as 6.25 µM; on VHL (10% in DMSO), 8.29 µM.

With `Cc1ncsc1-c1ccc([C@H](C)NC(=O)[C@@H]2C[C@@H](O)CN2C(=O)[C@H](C(C)C)n2cc(-c3ccnc(N4CC[C@H](NC(=O)C[C@@H]5N=C(c6ccc(Cl)cc6)c6c(sc(C)c6C)-n6c(C)nnc65)C4)c3)cn2)cc1`, the “cMyc Imax” value on BRD4 is on record as “++++ (71%≤Imax)”.

Take `Cc1ncsc1-c1ccc(CNC(=S)[C@@H]2C[C@@H](O)CN2C(=O)[C@H](C(C)C)N2Cc3ccccc3C2=O)cc1` [Example 110, (2S,4R)-4-hydroxy-1-((S)-3-methyl-2-(1-oxoisoindolin-2-yl)butanoyl)-N-(4-(4-methylthiazol-5-yl)benzyl)pyrrolidine-2-carbothioamide]: the concentration for half-maximal inhibition (IC50) at VHL (1% in DMSO) came out at 21.6 µM.

With `Cc1ncsc1-c1ccc(CNC(=O)C2(C)C[C@@H](O)CN2C(=O)[C@H](C(C)C)N2Cc3ccccc3C2=O)cc1` (single isomer, unassigned) [Example 129], the IC50 on VHL (1% in DMSO) worked out at 19.3 µM.

In the case of `Cc1ncsc1-c1ccc([C@H](C)NC(=O)[C@@H]2C[C@@H](O)CN2C(=O)[C@H](C(C)C)n2cc(-c3ccnc(O[C@H]4C[C@H](NC(=O)C[C@@H]5N=C(c6ccc(Cl)cc6)c6c(sc(C)c6C)-n6c(C)nnc65)C4)c3)cn2)cc1`, the “cMyc Imax” value on BRD4 is on record as “++++ (71%≤Imax)”.

Take `Cc1ncsc1-c1ccc(CNC(=O)[C@@H]2C[C@@H](O)CN2C(=O)[C@@H](NC(=O)C2CCN(C)CC2)C(C)(C)C)cc1` [Example 75, N—((S)-1-((2S,4R)-4-hydroxy-2-(4-(4-methylthiazol-5-yl)benzylcarbamoyl)pyrrolidin-1-yl)-3,3-dimethyl-1-oxobutan-2-yl)-1-methylpiperidine-4-carboxamide]: the results for the IC50 on VHL (1% in DMSO) and on VHL (10% in DMSO) were 13.7 µM and 9.29 µM, respectively.

Take `Cc1ncsc1-c1ccc([C@H](C)NC(=O)[C@@H]2C[C@@H](O)CN2C(=O)[C@H](C(C)C)n2cc(OCCCOCCC(O)CCOc3ccc(N4C(=S)N(c5ccc(C#N)c(C(F)(F)F)c5)C(=O)C4(C)C)cc3)cn2)cc1` (stereo partly shown): in the test with Androgen Receptor, the “Dmax (highest percentage of Androgen Receptor degradation observed)” value is given as “+++ (51%≤Dmax≤70%)”.

`Cc1ncsc1-c1ccc(CNC(=O)C2(C)C[C@@H](O)CN2C(=O)[C@H](C(C)C)N2Cc3ccccc3C2=O)cc1` (single isomer, unassigned) [Example 128] gave an IC50 at VHL (1% in DMSO) of over 100 µM.

For `Cc1ncsc1-c1ccc([C@H](C)NC(=O)[C@@H]2C[C@@H](O)CN2C(=O)[C@H](C(C)C)n2cc(-c3ccnc(N4CC[C@@H](Nc5ccc(C(=O)N[C@H]6C(C)(C)[C@H](Oc7ccc(C#N)c(Cl)c7)C6(C)C)cc5)C4)c3)cn2)cc1`, the “Dmax (highest percentage of Androgen Receptor degradation observed)” value with Androgen Receptor is reported as “++ (26%≤Dmax≤50%)”.

For `Cc1ncsc1-c1ccc([C@H](C)NC(=O)[C@@H]2C[C@@H](O)CN2C(=O)[C@@H](n2cc(-c3ccnc(O[C@H]4C[C@@H](NC(=O)C[C@@H]5N=C(c6ccc(Cl)cc6)c6c(sc(C)c6C)-n6c(C)nnc65)C4)c3)cn2)C(C)(C)C)cc1`, the “cMyc Imax” value on BRD4 is recorded as “++++ (71%≤Imax)”.

As to `Cc1ncsc1-c1ccc(CNC(=O)[C@@H]2C[C@@H](O)CN2C(=O)[C@@H](NC(=O)c2ccccc2C#N)C(C)(C)C)cc1` [Example 70, (2S,4R)-1-((S)-2-(2-cyanobenzamido)-3,3-dimethylbutanoyl)-4-hydroxy-N-(4-(4-methylthiazol-5-yl)benzyl)pyrrolidine-2-carboxamide], the 50% inhibitory concentration (IC50) at VHL (1% in DMSO) was 2.02 µM; on VHL (10% in DMSO), 1.2 µM.
